Data on six molecules can be found in EP4175633B1, “THIENO[3,4-C]PYRAZOL-3-YL […] AUTOTAXIN INHIBITORS” (Uni-Pharma Kleon Tsetis Pharmaceutical Laboratories S.A., priority 2020, dated 2022).

Each structure is given as a SMILES string. Like-named read-outs stand apart in the source and are kept apart here.

Experiment [1] concerns the target mouse ATX (Mus musculus, UniProt Q9R1E6). Nature of the experiment: Amplex Red activity assay (ATX inhibition, LPC hydrolysis). It counts as biochemical. On the procedure: (§1) In a similar approach to TOOS Activity Assay, this widely used method detects the ATX ability to hydrolyze LPC using a test that monitors choline release using Amplex Red fluorescent reagent (10 mM), choline oxidase (0.2 U/mL) and Radish Peroxidase (HRP - 2 U/mL). All reactions were conducted with 2 nM pure ATX and 50 µM LPC (16:0 or 18:0) at 37 °C. Inhibitors (3 mM) were dissolved in dimethyl sulfoxide (DMSO) at concentrations from 0.001 to 5 µmol/L. Fluorescence values were measured on a fluorescent plate reader (Tecan Infinite 200). IC50 values were determined using the values from two independent experiments, using the sigmoid dose-response curve (PrismH software) from the equation f = y0 + a / (1 + exp (- (x-x0) / b) given from SigmaPlot 11.0.
(§2) Subsequently, 50 µL of a buffer solution containing 200 µM LPC 16:0 (final concentration 50 µM) were added to the reaction mixture followed by incubation for another 30 minutes at 37 °C. Finally, 50 µL of working solution containing 200 µM Amplex Red reagent and choline oxidase (0.2 U/mL) […] HRP (2 U/mL), in 50 mM Tris-HCl at pH 8.0 and 5 mM CaCl2, was added to begin the reaction. The reaction was monitored at 37 °C, in a fluorescence plate reader (Tecan Infinite 200) using excitation at 530 nm and reading at 590 nm, every five minutes for 30 minutes at 37°C. The IC50 value was calculated from two independent experiments, using the sigmoid dose-response curve (PrismH software) from the equation f=y0+a/(1+exp(-(x-x0)/b) given from SigmaPlot 11.0.
(§3) Subsequently, 50 µL of a buffer solution containing 200 µM LPC 16:0 (final concentration 50 µM) was added to the reaction mixture followed by incubation for another 30 minutes at 37 °C. […] The reaction was monitored at 37 °C, in a fluorescence plate reader (Tecan Infinite 200) using excitation at 530 nm and reading at 590 nm, every five minutes for 30 minutes at 37°C. The IC50 value was calculated from two independent experiments, using the sigmoid dose-response curve (PrismH software) from the equation f=y0+a/(1+exp(-(x-x0)/b) given from SigmaPlot 11.0.

Experiment [2] has as its target human ATX (Homo sapiens, UniProt Q13822). The description is as above. It counts as biochemical. On the procedure: as §1, §2
as §2, with “was” for “were”
as §3, §3

Setting [3] is: ATX final concentration 2 nM, LPC 16:0 50 µM, 37 °C, two independent experiments, read-out: IC50 value for the inhibition of mouse ATX.
Where [4] appears, read: human ATX final concentration 1 nM, LPC 16:0 50 µM, 37 °C, two independent experiments, read-out: IC50 value for human ATX inhibition.

Turning to `O=C(Nc1c2c(nn1-c1ccc(Br)cc1)CSC2)c1cccc2ccccc12` [A4], the IC50 came out at 12.7 µM in experiment [1] (setting [3]) and 3.5 µM in experiment [2] (setting [4]).

With `O=C(Nc1c2c(nn1-c1cnccn1)CSC2)c1cccc2ccccc12` [A14], the results for the IC50 in experiment [1] (setting [3]) and in experiment [2] (setting [4]) were 2.5 µM and 1.3 µM, respectively.

In the case of `O=C(O)c1ccc(-n2nc3c(c2NC(=O)c2cccc4ccccc24)CSC3)cc1` [A15], the IC50 in experiment [1] (mATX 2 nM (values without asterisk), read-out: IC50 (µM) (in mATX 2 nM)) worked out at 59.3 µM.

In the case of `O=C(Nc1c2c(nn1-c1ccncc1)CSC2)c1cccc2ccccc12` [A16], the IC50 in experiment [2] (setting [4]) turned out to be 7.5 µM.

Regarding `COC(C(=O)Nc1c2c(nn1-c1ccc(Br)cc1)CSC2)(c1ccccc1)C(F)(F)F` (centres unmarked) [A17], in experiment [2] (setting [4]), the IC50 was 2 µM.

For `O=C(Nc1c2c(nn1-c1ccc(Br)cc1)CSC2)c1cc(Cl)cc(Cl)c1` [A18], the IC50 in experiment [2] (values marked *: evaluation performed in human ATX (hATX) 1 nM, read-out: IC50 (µM) (in mATX 2 nM)) was determined as 2.5 µM.

What is called IC50 is the concentration at which inhibition is half-maximal.
